Consider 3 substances from patent publication US9023987B2, “Cell-permeable peptide” (Seoul National University R&DB Foundation, priority 2010, dated 2015).

Ends that are not written are not given here.

The test system of data set [1] is human mesenchymal stem cells (hMSC). Kind of data set: Cell permeability by fluorescence imaging (confocal scanning microscope). Type of data set: cell-based. Particulars: FITC/fluorescence-labeled, FIG. 3A, FIG. 7. As to the method:
The domains synthesized in Example 1 and Comparative Examples 1 and 2 were labeled with a fluorescent material in order to measure cell permeability. 10 equivalents of fluorescein isothiocyanate (FITC) was bound to N-terminals of the synthesized domains by using triethylamine (1 ml per 1 g of resin). The synthesis of the peptide was confirmed by measuring the molecular weight thereof through MALDI-TOF.
In order to measure the cell permeability of the cell permeable peptide-bone differentiation inducing sequence conjugate, after sterile slide glass was input in a 6-well plate and 2×10^4 human mesenchymal stem cells (hMSC) were plated in each well, the cells were cultured in a general medium for 20 hours (overnight incubation). Then the cells was cultured in an hMSC basal medium (MSCBM, LONZA, USA) containing 0.5% fetal bovine serum (FBS, GIBCO, USA) for 20 hours (overnight starvation). […] fluorescence labeled cell permeable peptide-bone differentiation inducing sequence conjugate and […] fluorescence labeled bone differentiation inducing sequence that were obtained by binding FITC (SIGMA, USA) N-terminals of the cell permeable peptide-bone differentiation inducing sequence conjugate synthesized by the method in Example 1 and the domain in Comparative Example 2 to synthesize the fluorescence label conjugate and fluorescence label domain, followed by isolation and purification, were injected into each well and washed with phosphate buffer solution (PBS) two times after 20 minutes and 80 minutes of injection. The resultants was observed using a confocal scanning microscope (IX 70, Olympus Co., Tokyo, Japan).

The target in data set [2] is T1, human-derived Smurf1 protein (Homo sapiens, UniProt Q9HCE7).
T1 construct: purchased Origene Technologies (Rockville, Md., USA)
The experiment in a line: Affinity to Smurf1 by surface plasmon resonance (BIACORE T100). Type of data set: binding. Particulars: 10 mM analyte over Smurf1 coupled to CM5 chip; FIG. 2A. As to the method: In order to confirm the affinity between cell permeable peptide-bone differentiation inducing sequence conjugate and Smurf1 by a chemical method, a human-derived Smurf1 protein acting as a ligand in the present experiment was purchased from Origene Technologies (Rockville, Md., USA). The protein ([…]) was coupled to a gold coated surface of a CM5 chip (BIACORE AB, Sweden) on which amino groups are bounded using an EDC/NHS kit (BIACORE AB, Sweden). (Instead of this experimental method, ‘Immobilization’ integrated into the BIACORE® T100 (BIACORE AB, Sweden) software used by the present inventors may be used). In this case, in order to find a suitable pH condition at which the protein may bind to the amino group in the CM5 chip, a method called ‘pH scouting’ was performed, thereby finding a pH condition. As a method of ‘pH scouting’, a method integrated in the BIACORE® T100 (BIACORE AB, Sweden) software used by the present inventors may be used. […]

Data set [3] relates to human mesenchymal stem cells (hMSC). The experiment in a line: Cytotoxicity by MTT assay. Type of data set: cell-based. On the set-up: dose or concentration left out as unconfirmed. The conditions noted are these: 24, 48, and 72 hours, FIG. 5. As to the method: In order to confirm whether or not cell proliferation is affected by potential toxicity when the cell permeable peptide-bone differentiation inducing sequence conjugate and control domains are cultured with hMSC, a 3-[4,5-dimethylthiazo-2-yl]-2,5-diphenyl tetrazolium bromide thiazolyl blue (MTT) assay method was used.
The MTT assay method is a method for measuring cytotoxicity by measuring absorbance of formazan produced as mitochondrial dehydrogenases in alive and metabolically active cells reduces MTT to indicate the absorbance as a percentage based on the control group. In this case, the measured absorbance reflects a concentration of the alive and metabolically active cells. 2,3,5-triphenyl tetrazolium chloride (TTC) is reduced to formazan in live cells. The formazan is insoluble purple color, and a respiration rate may be measured by a degree of color. The absorbance of formazan is maximal at 540 nm, and the absorbance measured at this wavelength reflects the concentration of the alive and metabolically active cells. Since a linear relationship between the absorbance and the concentration of the cells is not established when a concentration of cells in well to be measured is excessively high or low, a process of determining an optimal concentration of the cells was performed. […]

The test system is the same in data set [4]. Kind of data set: Cytotoxicity / cell proliferation by quantitative BrdU assay. Type of data set: cell-based. On the set-up: dose or concentration left out as unconfirmed. Particulars: 24, 48, and 72 hours, FIG. 6. As to the method:
In order to confirm whether or not cell proliferation is affected by potential toxicity when the cell permeable peptide-bone differentiation inducing sequence conjugate and control domains are cultured with hMSC, a degree of cell proliferation was analysis by ELISA using BrdU. Since BrdU was introduced in chromosome instead of deoxy thymidine triphosphate (dTTP) at the time of DNA replication during a proliferation process of hMSC, a degree of introduction of BrdU may reflect a degree of proliferation of hMSC.
First, After 1×10^3 human Mesenchymal Stem cells (hMSC) were plated into each well of 96-well plate, the degree of introduction of BrdU, that is, the degree of proliferation of hMSC was measured using a cell proliferation ELISA kit (BrdU (colorimetry); Boehringermanheim, Germany). Simply describing this method, the cells were treated with the cell permeable peptide-bone differentiation inducing sequence conjugate synthesized by the method in Example 1 and the domains of Example 2 at a concentration of […] and cultured in medium for forming hard tissue for 24, 48, and 72 hours. […] of BrdU (5-bromo-2′-deoxyuridine) was added to each of the groups before 24 hours of each culture time and further cultured for 24 hours. […] The reaction was terminated by 1N H2SO4, and then absorbance was measured using the ELISA reader (Bio-Tek, USA) at 450 nm.
(In general: Dividing cells build labelled thymidine or BrdU into new DNA.)

T1 sequence (Q9HCE7 whole entry): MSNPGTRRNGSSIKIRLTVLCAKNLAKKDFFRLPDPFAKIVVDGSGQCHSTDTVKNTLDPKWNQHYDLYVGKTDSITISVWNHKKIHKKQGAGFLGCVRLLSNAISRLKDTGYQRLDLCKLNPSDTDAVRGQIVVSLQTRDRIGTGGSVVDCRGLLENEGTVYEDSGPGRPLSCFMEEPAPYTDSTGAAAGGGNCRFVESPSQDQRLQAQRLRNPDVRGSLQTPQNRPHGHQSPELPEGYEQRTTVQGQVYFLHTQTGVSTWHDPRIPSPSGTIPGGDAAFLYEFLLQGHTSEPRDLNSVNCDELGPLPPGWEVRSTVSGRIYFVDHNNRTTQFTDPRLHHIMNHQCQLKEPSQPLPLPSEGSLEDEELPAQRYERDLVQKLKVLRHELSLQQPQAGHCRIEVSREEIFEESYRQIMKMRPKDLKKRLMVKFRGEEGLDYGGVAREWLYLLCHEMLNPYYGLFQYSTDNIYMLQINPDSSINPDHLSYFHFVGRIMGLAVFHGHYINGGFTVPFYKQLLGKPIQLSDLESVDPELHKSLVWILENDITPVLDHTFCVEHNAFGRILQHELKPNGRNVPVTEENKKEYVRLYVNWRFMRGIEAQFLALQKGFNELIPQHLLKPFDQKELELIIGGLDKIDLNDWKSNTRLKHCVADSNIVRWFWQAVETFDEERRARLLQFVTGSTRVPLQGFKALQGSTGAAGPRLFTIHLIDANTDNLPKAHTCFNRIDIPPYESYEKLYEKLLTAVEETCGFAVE

For the substance “SSRKKNPNCRRH (H4S) [Comparative Example 1]”, in data set [1], the “intracellular fluorescence after 20 minutes (confocal)” value is listed as “fluorescent materials uniformly present in cytoplasm were observed” and the “intracellular fluorescence after 80 minutes (confocal)” value is given as “fluorescent materials densely present up to in nucleus were confirmed”. The “affinity to Smurf1” value in data set [2] is given as 100 RU.

As for YGRKKRRQRRR [TAT, reference compound], in data set [1], the “intracellular fluorescence after 20 minutes (confocal)” value was “fluorescent materials uniformly present in cytoplasm were observed” and the “intracellular fluorescence after 80 minutes (confocal)” value is “fluorescent materials densely present up to in nucleus were confirmed”.

As for “GAPPPADSAP-NH2 [Comparative Example 2, GAPPPADSAP, reference compound]”, the “cytotoxicity (MTT, cell proliferation ability compared with PBS)” value in data set [3] was “did not exhibit cytotoxicity”. The “effect on cell proliferation (BrdU, DNA synthesis ability compared with PBS)” value in data set [4] is on record as “did not affect the cell proliferation”.
